{"source": "patent US20090137664A1", "about": "“SAURURUS CERNUUS COMPOUNDS THAT INHIBIT CELLULAR RESPONSES TO HYPOXIA” (priority 2003, published 2009)", "key": {"[1]": {"system": "secreted VEGF protein", "experiment": "hypoxic induction of secreted VEGF protein in T47D cells (ELISA)", "format": "cell-based, human", "description": "The effects of compounds 1 and 2 on hypoxic induction of secreted VEGF protein are examined in T47D cells. Exponentially grown T47D cells are plated at the density of 30,000 cells/well into 96-well plates. Compound treatment and hypoxic exposure are the same as described. Following incubation, the concentration of secreted VEGF protein in the conditioned media is determined by ELISA (R & D Systems) and the data normalized by the number of viable cells. Results shown in FIG. 4 are averages from a representative experiment performed in quadruplicate, the bars represent standard error. An asterisk (*) indicates the level of significance (p<0.01) relative to the hypoxic control, two asterisks (**) (p<0.0001), and no asterisk indicates no statistical difference (ANOVA and Fisher's PLSD post hoc test).\nAs discussed earlier, one important HIF-1 target gene is VEGF, a key factor for tumor angiogenesis. Compounds that can inhibit both HIF-1 activation and the production of secreted VEGF protein represent potential efficacious chemotherapeutic agents that inhibit both tumor survival and hypoxia induced angiogenesis. The effects of four active examples (compounds 2, 3, 4, and 5) on hypoxic induction of secreted VEGF protein are examined in T47D cells and the data are presented in FIG. 9. Exponentially grown T47D cells are plated at the density of 356,000 cells/well into 12-well plates. Compound treatment and hypoxic exposure are the same as described. Following incubation, the concentration of secreted VEGF protein in the conditioned media is determined by ELISA (R & D Systems) and the data normalized by the number of viable cells. […] Hypoxic exposure leads to a 2-fold increase in the level of secreted VEGF protein. […] The level of significance (p<0.01) is determined by ANOVA and Fisher's PLSD post hoc test. The exemplary compounds 2, 3, and 4 all completely block hypoxic induction of secreted VEGF protein at concentrations as low as 10 nM. The exemplary compound 5 inhibits the hypoxic induction by 60% at 10 nM, and completely blocks at 100 nM. When tested at 100 nM, none of the compounds interfere with the ELISA assay using VEGF standard (no greater than 15% difference)."}, "[2]": {"system": "tumor cell lines", "experiment": "NCI in vitro 60-cell line antitumor testing, GI50 pattern", "format": "cell-based", "conditions": "GI50 60-cell line pattern", "description": "(§1) For exemplary purposes, an embodiment of the present invention was tested for activity with respect to certain cancer cell lines. The following Tables show results from in vitro 60-cell line antitumor testing from the US National Cancer Institute Developmental Therapeutics Program (NCI-DTP) on compound 2. The testing was in connection with the NCI's In Vitro Cell Line Screening Project (IVCLSP). Detailed information regarding the experiments and their interpretation is available from the NCI.\nTable 2 depicts the GI50 mean bar graph for tumor cell lines, grouped into various categories (such as colon, breast, etc.) The data are arranged to display the relative response selectivity of each cell line relative to one other. This form of data display is used to examine the relative tumor specificity of a text compound. The curves represent the response of each tumor cell line when treated with compound 2.\nAntitumor agents with tumor-specific selectivity are highly desired, in order to reduce the incidence of non-selective cytotoxicity to patients. […] This is of special importance since this NCI/ADR-RES cell line is resistant to many currently used antitumor agents such as adriamycin, taxol, and others."}, "[3]": {"system": "NCI-H522", "experiment": "NCI in vitro cell line screen (SRB), Non-Small Cell Lung Cancer NCI-H522", "format": "cell-based", "description": "as §1"}, "[4]": {"system": "U251", "experiment": "NCI in vitro cell line screen (SRB), CNS Cancer U251", "format": "cell-based", "description": "as §1"}, "[5]": {"system": "SN12C", "experiment": "NCI in vitro cell line screen (SRB), Renal Cancer SN12C", "format": "cell-based", "description": "as §1"}, "[6]": {"conditions": "Homo sapiens, read-out: LC50 (the source's name)"}}}
{"smiles": "COc1ccc([C@@H](O)[C@@H](C)Oc2ccc([C@H]3O[C@H](c4ccc(O[C@H](C)[C@H](O)c5ccc6c(c5)OCO6)c(OC)c4)[C@H](C)[C@H]3C)cc2OC)cc1OC", "note": "[Compound 2, manassantin B]", "values": [{"measurement": "inhibition of VEGF protein levels relative to the hypoxia-induced positive control", "setting": "[1]; 12-well, p<0.01", "value": "significantly inhibit"}, {"measurement": "reduction of secreted VEGF protein induced by hypoxia", "setting": "[1]; 96-well, 1 at 100 nM, 2 at 10 nM, PD98059 at 100 μM", "value": "statistically significant reduction"}, {"measurement": "relative potency in reducing the level of secreted VEGF protein", "setting": "[1]; hypoxia", "value": "ten times more potent than 1"}, {"measurement": "selectivity for tumor cell lines", "setting": "[2]", "value": "up to 10,000 fold"}, {"measurement": "TGI", "setting": "[3]", "value": ">1.00E−4", "unit": "Molar"}, {"measurement": "GI50", "setting": "[3]; Homo sapiens", "value": 3.38, "unit": "µM"}, {"measurement": "CC50", "setting": "[3]; [6]", "value": "> 100", "unit": "µM"}, {"measurement": "Mean Optical Densities", "setting": "[3]; Log10 Concentration −4.0 Molar", "value": 0.760}, {"measurement": "Percent Growth", "setting": "[3]; Log10 Concentration −4.0 Molar", "value": 9, "unit": "%"}, {"measurement": "Mean Optical Densities", "setting": "[3]; Log10 Concentration −5.0 Molar", "value": 0.919}, {"measurement": "Percent Growth", "setting": "[3]; Log10 Concentration −5.0 Molar", "value": 35, "unit": "%"}, {"measurement": "Mean Optical Densities", "setting": "[3]; Log10 Concentration −6.0 Molar", "value": 1.119}, {"measurement": "Percent Growth", "setting": "[3]; Log10 Concentration −6.0 Molar", "value": 67, "unit": "%"}, {"measurement": "Mean Optical Densities", "setting": "[3]; Log10 Concentration −7.0 Molar", "value": 1.099}, {"measurement": "Percent Growth", "setting": "[3]; Log10 Concentration −7.0 Molar", "value": 64, "unit": "%"}, {"measurement": "Mean Optical Densities", "setting": "[3]; Log10 Concentration −8.0 Molar", "value": 1.087}, {"measurement": "Percent Growth", "setting": "[3]; Log10 Concentration −8.0 Molar", "value": 62, "unit": "%"}, {"measurement": "TGI", "setting": "[4]", "value": "7.27E−5", "unit": "Molar"}, {"measurement": "GI50", "setting": "[4]; Homo sapiens, U-251", "value": "< 0.01", "unit": "µM"}, {"measurement": "CC50", "setting": "[4]; Homo sapiens, U-251, read-out: LC50 (the source's name)", "value": "> 100", "unit": "µM"}, {"measurement": "Mean Optical Densities", "setting": "[4]; Log10 Concentration −4.0 Molar", "value": 0.267}, {"measurement": "Percent Growth", "setting": "[4]; Log10 Concentration −4.0 Molar", "value": "−2", "unit": "%"}, {"measurement": "Mean Optical Densities", "setting": "[4]; Log10 Concentration −5.0 Molar", "value": 0.335}, {"measurement": "Percent Growth", "setting": "[4]; Log10 Concentration −5.0 Molar", "value": 15, "unit": "%"}, {"measurement": "Mean Optical Densities", "setting": "[4]; Log10 Concentration −6.0 Molar", "value": 0.418}, {"measurement": "Percent Growth", "setting": "[4]; Log10 Concentration −6.0 Molar", "value": 35, "unit": "%"}, {"measurement": "Mean Optical Densities", "setting": "[4]; Log10 Concentration −7.0 Molar", "value": 0.444}, {"measurement": "Percent Growth", "setting": "[4]; Log10 Concentration −7.0 Molar", "value": 41, "unit": "%"}, {"measurement": "Mean Optical Densities", "setting": "[4]; Log10 Concentration −8.0 Molar", "value": 0.443}, {"measurement": "Percent Growth", "setting": "[4]; Log10 Concentration −8.0 Molar", "value": 41, "unit": "%"}, {"measurement": "TGI", "setting": "[5]", "value": ">1.00E−4", "unit": "Molar"}, {"measurement": "GI50", "setting": "[5]; Homo sapiens", "value": 35.2, "unit": "µM"}, {"measurement": "CC50", "setting": "[5]; [6]", "value": "> 100", "unit": "µM"}, {"measurement": "Mean Optical Densities", "setting": "[5]; Log10 Concentration −4.0 Molar", "value": 0.594}, {"measurement": "Percent Growth", "setting": "[5]; Log10 Concentration −4.0 Molar", "value": 42, "unit": "%"}, {"measurement": "Mean Optical Densities", "setting": "[5]; Log10 Concentration −5.0 Molar", "value": 0.669}, {"measurement": "Percent Growth", "setting": "[5]; Log10 Concentration −5.0 Molar", "value": 59, "unit": "%"}, {"measurement": "Mean Optical Densities", "setting": "[5]; Log10 Concentration −6.0 Molar", "value": 0.723}, {"measurement": "Percent Growth", "setting": "[5]; Log10 Concentration −6.0 Molar", "value": 72, "unit": "%"}, {"measurement": "Mean Optical Densities", "setting": "[5]; Log10 Concentration −7.0 Molar", "value": 0.775}, {"measurement": "Percent Growth", "setting": "[5]; Log10 Concentration −7.0 Molar", "value": 84, "unit": "%"}, {"measurement": "Mean Optical Densities", "setting": "[5]; Log10 Concentration −8.0 Molar", "value": 0.770}, {"measurement": "Percent Growth", "setting": "[5]; Log10 Concentration −8.0 Molar", "value": 82, "unit": "%"}]}
